EC50 and AC50 data for 43 compounds are collected here from ChEMBL document CHEMBL1201862, “PubChem BioAssay data set” (2004).

A short description of assay [1]: luciferase reporter signal suppression in cells – H4 neuroglioma cells, luminescence, dose response (AID 1990). Format: functional, cell-based. A general note: Reporter assays use an easily measured gene product as a stand-in for the process of interest.
Assay [2] can be described thus: Luminescence Cell-Based Dose Response HTS to Identify Inhibitors of 5'UTR Stem-Loop Driven Prion Protein mRNA Translation in H4 Neuroglioblastoma Cells. [Related pubchem assays: 1827 (Project Summary), 1813 (Primary HTS)]. Format: functional.
A short description of assay [3]: alpha-synuclein stem-loop luciferase translation blockers – H4 neuroglioma cells, luminescence, confirmation (AID 1988). The class given is functional, cell-based.
Assay [4] has as its target T1, Cytochrome P450 1A2 (Homo sapiens, UniProt P05177).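 Also: PubChem cytochrome P450 panel assay, CYP1A2 panel member.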
T1 sequence (P05177 whole entry): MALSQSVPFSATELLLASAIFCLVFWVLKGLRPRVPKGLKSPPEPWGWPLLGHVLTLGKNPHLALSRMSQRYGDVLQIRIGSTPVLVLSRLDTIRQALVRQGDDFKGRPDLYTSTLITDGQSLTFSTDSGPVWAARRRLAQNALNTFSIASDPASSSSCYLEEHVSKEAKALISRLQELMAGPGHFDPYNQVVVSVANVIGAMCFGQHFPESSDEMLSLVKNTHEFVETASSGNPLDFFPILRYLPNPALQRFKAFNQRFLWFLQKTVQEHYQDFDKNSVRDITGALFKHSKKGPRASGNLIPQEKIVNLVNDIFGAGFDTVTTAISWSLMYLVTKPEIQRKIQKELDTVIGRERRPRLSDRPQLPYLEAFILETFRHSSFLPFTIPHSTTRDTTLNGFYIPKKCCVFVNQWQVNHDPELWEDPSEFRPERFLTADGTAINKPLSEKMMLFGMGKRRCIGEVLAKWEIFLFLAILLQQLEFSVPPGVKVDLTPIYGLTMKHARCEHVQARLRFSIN

Assay [5] addresses Cytochrome P450 3A4 (Homo sapiens, UniProt P08684).
The target in assay [6] is Cytochrome P450 2C9 (Homo sapiens, UniProt P11712).
For assay [7], the target named is T2, Heat shock factor protein 1 (Mus musculus, UniProt P38532).
T2 sequence (P38532 whole entry): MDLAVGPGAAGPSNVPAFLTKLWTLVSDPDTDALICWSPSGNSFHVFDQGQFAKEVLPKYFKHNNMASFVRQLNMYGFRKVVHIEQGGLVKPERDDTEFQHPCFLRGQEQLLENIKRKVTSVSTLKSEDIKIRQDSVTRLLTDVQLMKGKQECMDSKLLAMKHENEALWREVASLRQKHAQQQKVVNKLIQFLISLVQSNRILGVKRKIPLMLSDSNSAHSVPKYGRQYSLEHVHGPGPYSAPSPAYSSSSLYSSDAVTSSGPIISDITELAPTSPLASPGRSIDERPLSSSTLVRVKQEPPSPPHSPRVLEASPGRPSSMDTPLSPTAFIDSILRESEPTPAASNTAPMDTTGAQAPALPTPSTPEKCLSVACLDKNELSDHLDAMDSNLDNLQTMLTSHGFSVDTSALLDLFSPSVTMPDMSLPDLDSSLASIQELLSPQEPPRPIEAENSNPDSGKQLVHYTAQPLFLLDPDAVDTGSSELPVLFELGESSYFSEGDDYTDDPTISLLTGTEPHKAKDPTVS
Briefly: decrease of HSF1-responsive luciferase luminescence – cell-based, NIH3T3, dose retest, confirmation (AID 2382).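 Also: NIH3T3 fibroblasts with HSF1-driven luciferase reporter stressed by proteasome inhibitor MG132; luminescence from HSF1-driven luciferase expression after 8 hours of MG132 stress.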 Format: functional.

Assay [8] deals with INS1. Briefly: INS-1E survival protection against cytokine death – cell-based, luminescence, retest, dose response (AID 449756).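 Also: cell death triggered by IL-1 beta plus TNF-alpha plus IFN-gamma mixture; protective hits raise ATP signal compared with cytokine alone wells.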 Format: functional. To be noted: Rattus norvegicus.
A short description of assay [9]: Trypanosoma cruzi growth suppression in host cells – NIH3T3 host cells, beta-gal luminescence, confirmation (AID 2044).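 Also: intracellular parasites grown in NIH/3T3 mouse fibroblasts as host cells; luminescent beta-galactosidase reporter signal from transgenic T. cruzi replicating inside host cells; inhibitors lower the luminescence signal.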 The class given is functional, cell-based.
The nature of assay [10]: NIH3T3 cell viability loss – ATP luminescence, mouse fibroblasts, counter-screen, dose response (AID 2010).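 Also: cells exposed to compound for about 90 hours before reading.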 The class given is functional, cell-based.
Assay [11] can be described thus: Luminescence Cell-Based Dose Retest to Confirm Inhibitors of Cancer Stem Cells. [Related pubchem assays (depositor defined):AID2717, AID2721]. To be noted: Homo sapiens. The class given is functional.
Assay [12] concerns Streptococcus sp. 'group A'. Description: Streptococcus pyogenes SK(-)GAS viability under kanamycin – luminescence, BacTiterGlo, confirmation, counter-screen for streptokinase expression inhibitor project, dose response (AID 1900). Format: functional, organism-based. (In general: Counterscreens check selectivity or assay interference.)
For assay [13], the target named is T3, Streptokinase A (Streptococcus pyogenes serotype M1, UniProt P10520).
T3 sequence (P10520 whole entry): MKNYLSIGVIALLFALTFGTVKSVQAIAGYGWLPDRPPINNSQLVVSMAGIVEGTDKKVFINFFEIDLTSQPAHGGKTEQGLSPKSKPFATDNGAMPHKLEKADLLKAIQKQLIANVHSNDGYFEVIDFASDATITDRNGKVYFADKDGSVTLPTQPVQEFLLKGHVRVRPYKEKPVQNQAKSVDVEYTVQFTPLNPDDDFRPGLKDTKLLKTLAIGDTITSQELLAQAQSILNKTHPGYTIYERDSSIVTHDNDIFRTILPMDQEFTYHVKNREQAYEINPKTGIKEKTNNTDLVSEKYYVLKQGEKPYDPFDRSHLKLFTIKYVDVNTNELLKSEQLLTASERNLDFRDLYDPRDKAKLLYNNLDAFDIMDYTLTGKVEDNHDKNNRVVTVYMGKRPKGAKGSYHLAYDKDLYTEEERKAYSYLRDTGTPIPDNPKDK
Briefly: viability-normalized secreted streptokinase activity reduction – plasminogen activation absorbance, OD405, dose response (AID 1914).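 Also: secreted streptokinase activity via plasminogen activation per viability signal from cell pellet.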 The class given is functional, Streptococcus pyogenes M1 GAS.

Assay [14] relates to Streptococcus. Description: GAS UMAA2166 growth inhibition – luminescence, BacTiterGlo, counter-screen for streptokinase expression inhibitor project, dose response (AID 1915).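 Also: potency for reduction of bacterial viability or growth.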 Format: functional, organism-based.

Each structure is given as a SMILES string. Calls of active or inactive are those of the source. Rule as the data show it, for most assays here: actives have a measured EC50 and inactives only a lower limit. Some results are limits rather than exact numbers.

Cytochrome P450 3A4, sequence (P08684 whole entry): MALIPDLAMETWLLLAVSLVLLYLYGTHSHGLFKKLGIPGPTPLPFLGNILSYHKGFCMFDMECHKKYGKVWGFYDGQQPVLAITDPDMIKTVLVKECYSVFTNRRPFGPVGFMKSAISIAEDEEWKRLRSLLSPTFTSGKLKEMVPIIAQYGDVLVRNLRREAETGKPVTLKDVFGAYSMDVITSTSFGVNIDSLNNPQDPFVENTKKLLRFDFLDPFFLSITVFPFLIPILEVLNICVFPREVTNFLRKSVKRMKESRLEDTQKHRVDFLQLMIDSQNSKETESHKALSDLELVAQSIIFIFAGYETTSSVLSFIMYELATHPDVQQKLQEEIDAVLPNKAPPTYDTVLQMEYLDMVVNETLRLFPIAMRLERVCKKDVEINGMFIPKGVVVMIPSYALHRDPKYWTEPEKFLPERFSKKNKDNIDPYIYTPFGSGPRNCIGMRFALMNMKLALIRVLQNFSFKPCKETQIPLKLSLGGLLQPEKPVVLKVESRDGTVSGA
Cytochrome P450 2C9, sequence (P11712 whole entry): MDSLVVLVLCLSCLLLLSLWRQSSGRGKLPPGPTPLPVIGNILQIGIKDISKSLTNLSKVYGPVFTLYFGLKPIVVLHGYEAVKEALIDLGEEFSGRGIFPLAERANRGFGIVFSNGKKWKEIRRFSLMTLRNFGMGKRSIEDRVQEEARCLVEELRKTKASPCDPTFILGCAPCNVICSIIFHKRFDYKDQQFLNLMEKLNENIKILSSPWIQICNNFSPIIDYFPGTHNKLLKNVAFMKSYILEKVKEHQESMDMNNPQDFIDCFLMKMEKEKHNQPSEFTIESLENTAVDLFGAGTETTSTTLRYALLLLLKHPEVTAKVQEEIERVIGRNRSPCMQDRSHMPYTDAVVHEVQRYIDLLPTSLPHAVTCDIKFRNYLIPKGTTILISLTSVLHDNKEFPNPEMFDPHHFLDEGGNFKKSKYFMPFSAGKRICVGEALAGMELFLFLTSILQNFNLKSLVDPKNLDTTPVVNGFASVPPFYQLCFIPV

For the compound `CCOC(=O)c1cc(CC)sc1NC(=O)CSc1nc2ccccc2c(=O)n1Cc1ccco1`, the half-maximal effective concentration (EC50) in [1] was > 120 µM (not active); in [2], > 120 µM (not active); in assay [3] it was 17.8 µM (active). Take `COc1ccc(-n2c(=O)c(-c3cccs3)nc3cnc(N4CCOCC4)nc32)cc1`: the AC50 was 12.6 µM (inconclusive) in [4], 20 µM (inconclusive) in assay [5] and 20 µM (inconclusive) in assay [6].

Consider `O=[N+]([O-])c1ccccc1Nc1cccnc1`, for which the half-maximal effective concentration (EC50) in assay [7] is on record as > 195 µM (not active). Regarding `Cc1ccc(S(=O)(=O)N2CCCCC2c2cccnc2)c(C)c1C` (stereo not drawn), in [8], the AC50 was 57.2 µM (active). Turning to `CCC(c1nnnn1CCc1ccccc1)N(Cc1ccco1)Cc1cc2c(C)ccc(C)c2nc1O` (stereo not drawn), the EC50 in assay [1] is > 120 µM (not active); in assay [2], > 120 µM (not active); in assay [3], > 120 µM (not active); in assay [9], 1.41 µM (active); in assay [10], > 60 µM (not active). As to `CC/C(NCc1cc(OC)cc(OC)c1)=C1/C(=O)NC(=O)N(C2CCCCC2)C1=O`, the EC50 in [1] is 16 µM (active); in [2], > 120 µM (not active); in assay [3], 27.2 µM (active). On to `O=C1N=C(N2CCCC2)S/C1=C\C=C\c1ccccc1`, for which, in assay [7], the EC50 is < 0.16 µM (active). On to `CC(=O)NCCNc1ccnc(-c2ccccc2C(F)(F)F)n1`, for which the AC50 in assay [4] and in assay [5] was 15.8 µM (inconclusive) throughout.

Take `CC1CC(C)CN(C(=O)c2ccc(CSc3nc4cc[nH]cc-4n3)cc2)C1` (stereo not drawn): the EC50 in assay [7] was > 195 µM (not active). The same measure, in the same setting: the same measure for `CC(=O)N=C(Nc1ccc2ccccc2c1)Nc1nc(C)cc(C)n1`: 146 µM (active). Turning to `Cc1cc(=O)oc2c(OS(C)(=O)=O)c(OS(C)(=O)=O)ccc12`, the AC50 in [4] was 0.794 µM (inconclusive). For the compound `CC(C)CNc1nc(N)c([N+](=O)[O-])c(NCC2CCCO2)n1` (stereo not drawn), the EC50 is 13.5 µM (active) in assay [1], 4.6 µM (active) in assay [2] and > 120 µM (not active) in assay [3]. In the case of `CCCCC(=O)Nc1ccc(C(=O)NCCc2ccc(S(N)(=O)=O)cc2)cc1`, the EC50 in [7] is given as > 195 µM (not active).

As for `CC1(C)CC(=O)C(C(c2cccnc2)C2C(=O)CC(C)(C)CC2=O)C(=O)C1`, the EC50 in [7] is recorded as > 195 µM (not active). For the compound `COc1ccc(S(=O)(=O)N2CCCN(CCC(=O)Nc3cccc(C(F)(F)F)c3)CC2)cc1`, the AC50 in [4] was 15.8 µM (inconclusive); in assay [5], 39.8 µM (inconclusive); in assay [6], 39.8 µM (inconclusive). Regarding `CCC(=O)Nc1cc(-c2nn(CC(=O)N3CCCCC3)c(=O)c3ccccc23)ccc1N1CCOCC1`, the 50% effective concentration (EC50) in assay [7] is recorded as > 195 µM (not active). Same read-out and setting: the value for `CCOC(=O)c1ccc2ncc(C(C)=O)c(O)c2c1` was > 195 µM (not active). Turning to `CC(=O)c1cccc(NC(=O)CSc2ccc(-c3ccccn3)nn2)c1`, the values for the EC50 in [1], in [2] and in assay [3] were > 120 µM (not active), 14.6 µM (active) and > 120 µM (not active), respectively. For the compound `COc1ccccc1-c1nnc(SCC(=O)N2CC(C)CC(C)C2)o1` (stereo not drawn), the EC50 in [1], in assay [2] and in assay [3] was > 120 µM (not active) each time.

Consider `O=C(OC(C(=O)NCC1CCCO1)c1ccc(F)cc1)c1cccs1` (stereo not drawn), for which the EC50 in assay [7] is reported as > 195 µM (not active). `O=C(NC1CCCCC1)C1CCN(C(=O)c2ccc(-c3ccccc3)cc2)CC1`: the EC50 in [1] is > 120 µM (not active); in [2] it was > 120 µM (not active); in assay [3] it was 77.5 µM (active). For `COc1ccccc1-c1nc(NCCNC(C)=O)c2ccccc2n1`, in assay [4], the AC50 is 15.8 µM (inconclusive). `CCOC(=O)CCCNS(=O)(=O)c1c(C)ccc2nsnc12`: the EC50 in [7] was 53.4 µM (active).

For `CN(C)C(=O)c1ccc(NC(=O)c2cccnc2)cc1`, the AC50 in [8] is 6.14 µM (active). With `COc1ccc(C(O)c2nccn2Cc2ccccc2)cc1` (stereo not drawn), the AC50 in assay [4] was 6.31 µM (inconclusive). For `O=C(CN1CCN(c2ccc(O)cc2)CC1)Nc1cc(S(=O)(=O)N2CCCC2)ccc1Cl`, in assay [7], the EC50 is on record as > 195 µM (not active). As to `Cc1cccc(N2CC(=O)C(c3nc4ccccc4n3C)=C2N)c1`, the AC50 in assay [4] was 14.1 µM (inconclusive).

As to `CCNc1ncc2nc(CCc3ccccc3)c(=O)n(Cc3cccc(OC)c3)c2n1`, in assay [4], the AC50 was 12.6 µM (inconclusive). As for `c1nc(NCCc2c[nH]cn2)c2nc[nH]c2n1`, the AC50 in assay [4] is 5.01 µM (inconclusive); in [5], 3.98 µM (inconclusive). As for `Cn1nnc2cc(C(=O)NC(C)(C)C)ccc21`, the EC50 in assay [7] is 83.9 µM (active).

With `NC(CC(=O)Nc1ccc(F)cc1)=NO`, in assay [7], the EC50 was > 195 µM (not active).

On to `O=C(CNS(=O)(=O)c1ccccc1F)Nc1ccc(N2CCOCC2)cc1`, for which the EC50 in [7] is reported as > 195 µM (not active). Take `OCCCn1c(CCNc2nc(-c3ccc(Cl)cc3)cs2)nc2cc(C(F)(F)F)ccc21`: in assay [11], the AC50 is 23.9 µM (active).

Take `COC(=O)[C@H](CC(C)C)N(Cc1ccccc1)S(=O)(=O)N(Cc1ccc(OC)cc1)[C@@H](CC(C)C)C(=O)OC`: the AC50 in assay [8] is 5.77 µM (active).

Take `CN1CCN(C(=O)O[C@@H]2c3nccnc3C(=O)N2c2ccc(Cl)cn2)CC1`: the AC50 in assay [4] is 39.8 µM (inconclusive). Take `C=CCn1c(CNc2ccccc2)nnc1SCC(=O)N/N=C/c1ccccc1O`: the results for the EC50 in assay [1], in assay [2] and in [3] were 18.3 µM (active), > 120 µM (not active) and > 120 µM (not active), respectively. Turning to `C/C(=N\NC(=O)c1ccc(C)cc1)c1c(C)nn(-c2ccccc2)c1O`, the EC50 is 3.96 µM (active) in assay [12], > 150 µM (not active) in [13] and 14.7 µM (active) in [14]. The AC50 in assay [8] was 3.15 µM (active). On to `O=S(=O)(/N=C(/c1ccccc1Cl)N1CCOCC1)c1ccccc1`, for which the EC50 in assay [7] is given as > 195 µM (not active). Turning to `NS(=O)(=O)c1ccc(N/N=C2/CCCCC2C2CCCCC2)c([N+](=O)[O-])c1` (stereo not drawn), the EC50 in assay [12] was 3.34 µM (active); in [13], 7.92 µM (inconclusive); in assay [14], 7.18 µM (active). Further, in [8], the AC50 is 7.29 µM (active). Turning to `NC(=S)N/N=C/c1cc([N+](=O)[O-])ccc1OCCOc1ccccc1`, the EC50 in assay [7] was 52.6 µM (active). The same measure, in the same setting: the value for `CCOC(=O)N/N=C\c1ccc(C)s1` was > 195 µM (not active).

On to `CC(=O)N1CCN(C)CC1`, for which the AC50 in [4] is 31.6 µM (inconclusive). Still for that read-out and setting: the value for `CCOC(=O)c1ncn2c1CN(C)C(=O)c1cc(F)ccc1-2` [FLUMAZENIL] was 39.8 µM (inconclusive).

In general, EC50 refers to the concentration at which the effect is half-maximal. A word on the AC50: it is the concentration giving half of the maximal activity seen.
